Data from patent US12029715B2, “Precursor compounds for providing retinoids of the vitamin A5 pathway and uses thereof” (UNIVERSITY OF DEBRECEN, priority 2015, dated 2024).
Entries after “also recorded” stand apart in the source; their conditions may differ.

How the values were obtained:
C57BL/6N mice [1] = test: Chronic social defeat stress model, sucrose preference test; format: in vivo, mouse; details: stressed mice; for sucrose preference deficit, treatments during stress protocol: dose not given at the place
Excerpt: This task, designed to measure hedonic behaviors in mice is based on the palatable nature of sucrose observed in a number of mouse strains. On the first day of the test, sucrose-naive mice were placed in individual cages at 11 am and left there with water and food for habituation period. At 5 pm one water bottle was replaced with two bottles: one containing water and another 0.8% sucrose solution. Three hours later (8 pm) the bottles were weighed to measure liquid consumption and were replaced in cages until morning. The measures of an overnight consumption were then carried out for additional day to evaluate sucrose preference. Mice were not water deprived at any moment, in order to measure spontaneous sucrose preference and exclude any potential emotional confounds induced by stress of water deprivation. The sucrose preference was expressed as the percent of sucrose solution consumed with respect to total liquid consumption.
(§1) Social defeat stress procedure was a modified version of the protocol previously described (Berton, McClung et al. 2006). C57BL/6N mice were defeated chronically for 10 consecutive days. Every day they were exposed to the physical contact with an unfamiliar CD1 aggressor in its home cage for maximal interaction time of 5 minutes. After each session of physical stress, C57BL/6N and CD1 mice were separated by a perforated wall and maintained in sensory contact for 24 h. After the last session of stress, mice were transferred into new cages and housed separately throughout the behavioral tests period. C57BL/6N control mice, similarly to the experimental animals, were housed two per cage separated by a metal perforated wall. Every day, they were exposed to the physical contact for 5 minutes.
For behavioral analysis, 9CDHROL and 9CDHBC were dissolved in ethanol, and then mixed with sunflower oil, so that the final solution contained 3% ethanol. Vehicle treatments consisted of 3% ethanol solution in sunflower oil. For memory studies treatments with 9CDHRA were administered by intraperitoneal injections at volume/weight ratio 3 ml/kg at 7 am and 7 hours before the beginning of testing. For tests with animal model of chronic social defeat, different treatments were administered […] day of stress protocol immediately after the stress session starting from day 1 of the stress protocol.
This task, designed to measure hedonic behavior in mice (Moreau, 1997), is based on the palatable nature of sucrose observed in a number of mouse strains. On the first day of the test, sucrose-naive mice were placed in individual cages at 11 am and left there with water and food for habituation period. At 5 pm one water bottle was replaced with two bottles: one containing water and another 0.8% sucrose solution. Three hours later (8 pm) the bottles were weighed to measure liquid consumption and were replaced in cages until morning. The measures of an overnight consumption were then carried out for additional day to evaluate sucrose preference. Mice were not water deprived at any moment, in order to measure spontaneous sucrose preference and exclude any potential emotional confounds induced by stress of water deprivation. The sucrose preference was expressed as the percent of sucrose solution consumed with respect to total liquid consumption.
Social defeat stress procedure was a modified version of the protocol previously described (Berton et al. 2006). C57BL/6N mice were defeated chronically for 10 consecutive days. […]

C57BL/6N mice [2] = test: Chronic social defeat stress model, forced swim test; format: in vivo, mouse
Experimental: (§2) The forced swim paradigm was carried out between 1 pm and 4 pm in a 3-litre glass beaker half-filled with water at 22-23° C. (the water depth was 17 cm). All mice were tested only once in this task. To this end, each mouse was lowered gently into the water and the time of immobility was scored during a 6-minute testing period. The mouse was judged immobile when it floated in an upright position and made only small movements to keep its head above the water. After 6 min, the mouse was taken out of the water, left to dry under a red light lamp and returned to its home cage. The immobility scores of each animal were used as an index of despair behavior.
as §1
For behavioral analysis, 9CDHROL and 9CDHBC were dissolved in ethanol, and then mixed with sunflower oil, so that the final solution contained 3% ethanol. Vehicle treatments consisted of 3% ethanol solution in sunflower oil. For memory studies treatments with 9CDHRA were administered by intraperitoneal injections at volume/weight ratio 3 ml/kg at 7 am and 7 hours before the beginning of testing. For tests with animal model of chronic social defeat, different treatments were administered by intraperitoneal injections at volume/weight ratio 3 ml/kg at 10 mg/kg for each substance between 5-6 pm every second day of stress protocol immediately after the stress session starting from day 1 of the stress protocol.
as §2, with “paradigm (Dalvi and Lucki, 1999)” for “paradigm”, “2-litre” for “3-litre”
as §1, with “(Berton” for “(Berton, McClung”, “C57BL/6N control mice, similarly to the experimental animals, were housed two per cage separated by a metal perforated wall. Every day, they were exposed to the physical contact for 5 minutes.” left out

Compound	sucrose preference (anhedonia) (C57BL/6N mice [1]; 1 mg/kg)	sucrose preference deficit, treatments during stress protocol (C57BL/6N mice [1])	immobility time versus stressed, nontreated mice (C57BL/6N mice [2]; 3 mg/kg)	immobility time in the forced swim test (C57BL/6N mice [2]; stressed mice, 1 or 3 mg/kg during the stress protocol)	sucrose preference (anhedonia) (C57BL/6N mice [1]; 10 mg/kg i.p. every second day of stress protocol, 10 mg/kg)	immobility time in the forced swim test (C57BL/6N mice [2]; stressed mice, 10 mg/kg i.p. every second day of stress protocol, 10 mg/kg)	immobility time in the forced swim test, compared with 9CDHRA (C57BL/6N mice [2]; stressed mice, UVI2108 during the stress protocol)
CC(C=CC1=C(C)CCCC1(C)C)=CC=CC(C)CC(=O)O (stereo not drawn) [9CDHRA, 9-cis-13,14-dihydroretinoic acid]	Anhedonia was abolished	prevented	displayed anti-despair effects	decreased such immobility in stressed mice in a dose dependently manner; also recorded: efficiently normalized immobility time	–	–	–
CC1=C(/C=C/C(C)=C\C=C\C(C)CCO)C(C)(C)CCC1 (stereo not drawn) [9CDHROL, 9-cis-13,14-dihydroretinol]	–	–	–	–	prevented; also recorded: Anhedonia was abolished	decreased such immobility; also recorded: efficiently normalised immobility time	–
CC1(C)CCC(C)(C)c2cc(C3(c4ccc(C(=O)O)cc4)OCCO3)ccc21 [UVI2108, reference compound]	–	prevented; also recorded: activities similar to 9CDHRA	–	–	–	–	comparable
